Measured values: EP1171440B1, “SUBSTITUTED-3-CYANO-[1.7],[1.5], AND [1.8]-NAPHTHYRIDINE INHIBITORS OF TYROSINE KINASES” (Wyeth Holdings Corporation, priority 1999, dated 2000)
In brackets after ≈: the same amount, converted by molar mass.

Legend:
SW620 = experiment: Inhibition of Cancer Cell Growth as Measured by Cell Number (Sulforhodamine B); type: cell-based, Human; conditions: Homo sapiens, SW-620, 48 hours exposure, read-out: IC50
Procedure: (§1) After 48 hours exposure to test compounds, cells were fixed with trichloroacetic acid, and stained with Sulforhodamine B. After washing with trichloroacetic acid, bound dye was solubilized in 10 mM Tris base and optical density was determined using a plate reader. Under conditions of the assay the optical density is proportional to the number of cells in the well. […] The test procedure is described in details by Philip Skehan et. al, J.Natl. Canc. […] The Her2Neu cell line is a 3T3 line that has bbeen transfected with Her2 receptor kinase.

SKBR3 = experiment: as above; type: cell-based, Human; conditions: Homo sapiens, SK-BR-3, 48 hours exposure, read-out: IC50
Procedure: as §1

A431 = experiment: as above; type: cell-based, Human; conditions: Homo sapiens, A-431, 48 h, 48 hours exposure, read-out: IC50
Procedure: as §1

MDA435 = experiment: as above; type: cell-based, Human; conditions: Homo sapiens, MDA435, 48 h, 48 hours exposure, read-out: IC50
Procedure: as §1

LOX = experiment: as above; type: cell-based, Human; conditions: Homo sapiens, 48 hours exposure, read-out: IC50
Procedure: as §1

A2780DDP = experiment: as above; type: cell-based, Human; conditions: Homo sapiens, 48 h, 48 hours exposure, read-out: IC50
Procedure: as §1

A2780S = experiment: as above; type: cell-based, Human; conditions: Homo sapiens, 48 h, 48 hours exposure, read-out: IC50
Procedure: as §1

MCF7 = experiment: as above; type: cell-based; conditions: Homo sapiens, 48 hours exposure
Procedure: (§2) Human tumor cell lines were plated in 96-well plates (250 µl/well, 1-6 x 10^4 cells/ml) in RPMI 1640 medium, containing 5% FBS (Fetal Bovine Serum). […] After 48 hours exposure to test compounds, cells were fixed with trichloroacetic acid, and stained with Sulforhodamine B. After washing with trichloroacetic acid, bound dye was solubilized in 10 mM Tris base and optical density was determined using a plate reader. Under conditions of the assay the optical density is proportional to the number of cells in the well. IC50s (concentrations causing 50% inhibition of cell growth) were determined from the growth inhibition plots. The test procedure is described in details by Philip Skehan et. al, J.Natl. Canc. Inst., 82, 1107-1112 (1990). […] Information about some of the cell lines used in these test procedures is available from the American […]: Cell Lines and Hybridomas, 1994 Reference Guide, 8th Edition. The Her2Neu cell line is a 3T3 line that has bbeen transfected with Her2 receptor kinase.

[1] = target: T1, EGF-R Kinase (recombinant enzyme) (Homo sapiens, UniProt P00533); experiment: Inhibition of Epidermal Growth Factor Receptor Kinase (EGF-R) using recombinant enzyme, RR-SRC peptide phosphorylation with 33P-ATP; type: biochemical; conditions: for IC50: recombinant His-tagged cytoplasmic domain of EGFR, RR-SRC peptide, 90 min at room temperature, read-out: IC50
T1 construct: containing the EGFR cDNA encoding amino acids 645 - 1186 preceded by Met-Ala-(His)6; made in house; host or cells: Sf9 insect cells infected with recombinant baculovirus vHcEGFR52
Procedure: Representative test compounds were evaluated for their ability to inhibit the phosphorylation of the tyrosine residue of a peptide substrate catalyzed by the enzyme epidermal growth factor receptor kinase. […] The enzyme used in this assay is the His-tagged cytoplasmic domain of EGFR. A recombinant baculovirus (vHcEGFR52) was constructed containing the EGFR cDNA encoding amino acids 645 - 1186 preceded by Met-Ala-(His)6 . Sf9 cells in 100 mm plates were infected at an moi of 10 pfu/cell and cells were harvested 48 h post infection. A cytoplasmic extract was prepared using 1% Triton X-100 and applied to Ni-NTA column. After washing the column with 20 mM imidazole, HcEGFR was eluted with 250 mM imidazole (in 50 mM Na2HPO4, pH 8.0, 300 mM NaCl). Fractions collected were dialyzed against 10 mM HEPES, pH 7.0, 50 mM NaCl, 10% glycerol, 1ug/mL antipain and leupeptin and 0.1 mM Pefabloc SC. The protein was frozen in dry ice/methanol and stored -70° C.
Test compounds were made into 10 mg/mL stock solutions in 100% dimethylsulfoxide (DMSO). Prior to experiment, stock solutions were diluted to 500 uM with 100% DMSO and then serially diluted to the desired concentration with HEPES buffer (30 mM HEPES pH 7.4).
For the enzyme reaction, 10 uL of each inhibitor (at various concentrations) were added to each well of a 96-well plate. To this was added 3 uL of enzyme (1:10 dilution in 10mM HEPES, pH 7.4 for final conc. of 1:120). This was allowed to sit for 10 min on ice and was followed by the addition of 5 ul peptide (80 uM final conc.), 10ul of 4X Buffer (Table A), 0.25 uL ^33P-ATP and 12 uL H2O. The reaction was allowed to run for 90 min at room temperature and was followed by spotting the entire volume on to precut P81 filter papers. The filter discs were washed 2X with 0.5% phosphoric acid and radioactivity was measured using a liquid scintillation counter. Table A
The IC50 is the concentration of test compound needed to reduce the total amount of phosphorylated substrate by 50%. The % inhibition of the test compound was determined for at least three different concentrations and the IC50 value was evaluated from the dose response curve. […] CPM(control) is in units of counts per minute and was a number expressing the amount of radiolabeled ATP (γ-^33P) incorporated into the RR-SRC peptide substrate by the enzyme after 90 minutes at room temperature in the absence of test compound as measured by liquid scintillation counting. The CPM values were corrected for the background counts produced by ATP in the absence of the enzymatic reaction. Where it was possible to determine an IC50 value, this is reported in TABLE 1 otherwise the % inhibition at 0.5 µM concentration of test compound is shown in TABLE 1.

[2] = target: T2, KDR; the catalytic domain of the VEGF receptor (Homo sapiens, UniProt P35968); experiment: Inhibition of Kinase insert Domain containing Receptor (KDR), radioactive substrate phosphorylation; type: biochemical; conditions: pH 7.2; substrate copolymer of glutamic acid and tyrosine, E:Y = 4:1
T2 construct: KDR; the catalytic domain of the VEGF receptor
Procedure: In this standard pharmacological test procedure, KDR protein is mixed, in the presence or absence of an inhibitor compound, with a substrate peptide to be phosphorylated (a copolymer of glutamic acid and tyrosine, E:Y = 4:1) and other cofactors such as Mg^++ and sodium vanadate (a protein tyrosine phosphatase inhibitor) in an appropriate buffer to maintain pH (7.2). ATP and a radioactive tracer (either P^32- or P^33- labeled ATP) is then add to initiate phosphorylation. After incubation, the radioactive phosphate associated with the acid-insoluble fraction of the assay mixture is then quantified as reflection of substrate phosphorylation. This radioactive format was used to identify inhibitors of KDR tyrosine kinase activity where the IC50 is the concentration of drug that inhibits substrate phosphorylation by 50%.

3T3 = experiment: Inhibition of Cancer Cell Growth as Measured by Cell Number (Sulforhodamine B); type: cell-based; conditions: Mus musculus, NIH3T3, 48 hours exposure, read-out: IC50
Procedure: as §2

Her2Neu = experiment: as above; type: cell-based; conditions: Her2Neu (3T3 line transfected with Her2 receptor kinase); 48 hours exposure
Procedure: as §2

T1 sequence (P00533 669-1210): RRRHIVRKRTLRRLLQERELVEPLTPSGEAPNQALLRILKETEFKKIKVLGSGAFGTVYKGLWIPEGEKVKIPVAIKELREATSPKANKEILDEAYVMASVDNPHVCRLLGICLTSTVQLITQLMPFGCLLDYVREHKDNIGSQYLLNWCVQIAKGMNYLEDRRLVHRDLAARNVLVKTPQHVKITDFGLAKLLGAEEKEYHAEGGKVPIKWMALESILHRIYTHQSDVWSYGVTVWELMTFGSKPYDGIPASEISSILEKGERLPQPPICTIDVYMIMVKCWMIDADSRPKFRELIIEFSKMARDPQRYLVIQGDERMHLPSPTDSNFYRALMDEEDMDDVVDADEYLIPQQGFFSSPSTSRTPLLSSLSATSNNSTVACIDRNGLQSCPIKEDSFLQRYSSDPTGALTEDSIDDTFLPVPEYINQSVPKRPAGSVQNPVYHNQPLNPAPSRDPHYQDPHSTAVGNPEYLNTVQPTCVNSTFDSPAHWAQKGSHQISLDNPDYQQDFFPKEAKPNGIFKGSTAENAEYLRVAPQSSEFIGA
T2 sequence (P35968 834-1162 limits assumed): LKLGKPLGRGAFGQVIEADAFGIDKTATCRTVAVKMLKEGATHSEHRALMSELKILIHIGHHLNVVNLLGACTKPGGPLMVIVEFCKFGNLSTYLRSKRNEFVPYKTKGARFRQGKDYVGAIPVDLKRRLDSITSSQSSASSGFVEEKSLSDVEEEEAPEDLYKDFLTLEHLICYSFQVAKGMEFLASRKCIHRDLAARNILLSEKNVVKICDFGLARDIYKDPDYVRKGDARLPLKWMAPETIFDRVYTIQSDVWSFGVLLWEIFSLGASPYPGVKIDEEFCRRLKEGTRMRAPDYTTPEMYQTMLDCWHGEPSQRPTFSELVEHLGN

SMILES: CC#CC(=O)Nc1cc2c(Nc3cccc(Br)c3)c(C#N)cnc2cn1 [Example 61, But-2-ynoic acid, [4-(3-bromo-phenylamino)-3-cyano-[1.7]-naphthyridin-6-yl]-amide]
- IC50 (SW620): 0.17 µg/mL (≈ 0.418 µM)
- IC50 (SKBR3): 0.12 µg/mL (≈ 0.295 µM)
- IC50 (A431): 0.23 µg/mL (≈ 0.566 µM)
- IC50 (MDA435): 0.88 µg/mL (≈ 2.17 µM)
- IC50 (LOX): 0.07 µg/mL (≈ 0.172 µM)
- IC50 (A2780DDP): 0.13 µg/mL (≈ 0.32 µM)
- IC50 (A2780S): 0.06 µg/mL (≈ 0.148 µM)
- IC50 (MCF7): 0.4 µg/mL (≈ 0.985 µM)
- IC50 [1]: 0.02 µM

SMILES: Cc1ccc(Nc2c(C#N)cnc3cnc(F)cc23)cc1O [Example 66, 6-Fluoro-4-(3-hydroxy-4-methyl-phenylamino)-[1.7]naphthyridine-3-carbonitrile]
- IC50 [2]: 33.9 µg/mL (≈ 115 µM)

SMILES: CN(C)CCOc1cc2c(Nc3ccc(F)c(Cl)c3)c(C#N)cnc2cn1 [Example 74, 4-(3-Chloro-4-fluoro-phenylamino)-6-(2-dimethylamino-ethoxy)-[1.7]naphthyridine-3-carbonitrile]
- IC50 (SW620): > 5 µg/mL
- IC50 (SKBR3): 4.63 µg/mL (≈ 12 µM)
- IC50 (A431): 2.23 µg/mL (≈ 5.77 µM)
- IC50 (MDA435): > 5 µg/mL
- IC50 (3T3): 4.48 µg/mL (≈ 11.6 µM)
- IC50 (Her2Neu): > 5 µg/mL
- inhibition at 0.5 µM ([1]; 0.5 µM concentration of test compound, read-out: % Inhibition @ 0.5): 31.3%
- IC50 [1]: 1 µM
